According to US6355799B1, “Substituted benzene compounds, process for their preparation, and herbicidal and defoliant compositions containing them” (ISK Americas Incorporated, priority 1997, dated 2002):

Key:
Type in all cases: in vivo
[1] = tested on: redroot pigweed (Amaranthus retroflexus, AMARE); assay: Post-emerge test, greenhouse herbicide activity screening; details: post-emerge; for Post-emerge Herbicidal Activity AMARE: phytotoxicity rating 0-100 at 14 days after application; for Post-emerge Herbicidal Activity AMARE (phytotoxicity rating): 14 days after application
Procedure, shortened: (§1)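 Applied at 15–1000 g ai/ha from acetone in 187 l/ha spray volume. Post-emergence applications included 0.25% v/v non-ionic surfactant and reached plants sown 8–21 days before. Pre-emergence applications were incorporated by surface watering. Efficacy or crop damage was rated on a 0–100 scale after 14 days.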

[2] = tested on: sicklepod (Cassia obtusifolia, CASOB); assay: as above; details: post-emerge; for Post-emerge Herbicidal Activity CASOB: phytotoxicity rating 0-100 at 14 days after application; for Post-emerge Herbicidal Activity CASOB (phytotoxicity rating): 14 days after application, rating scale 0-100
Procedure, shortened: as §1

[3] = tested on: ivyleaf morningglory (Ipomoea hederacea, IPOHE); assay: as above; details: post-emerge; for Post-emerge Herbicidal Activity IPOHE: phytotoxicity rating 0-100 at 14 days after application; for Post-emerge Herbicidal Activity IPOHE (phytotoxicity rating): 14 days after application, rating scale 0-100
Procedure, shortened: as §1

[4] = tested on: velvetleaf (Abutilon theophrasti, ABUTH); assay: as above; details: post-emerge; for Post-emerge Herbicidal Activity ABUTH: phytotoxicity rating 0-100 at 14 days after application; for Post-emerge Herbicidal Activity ABUTH (phytotoxicity rating): 14 days after application, rating scale 0-100
Procedure, shortened: as §1

[5] = tested on: large crabgrass (Digitaria sanguinalis, DIGSA); assay: as above; details: post-emerge; for Post-emerge Herbicidal Activity DIGSA: phytotoxicity rating 0-100 at 14 days after application; for Post-emerge Herbicidal Activity DIGSA (phytotoxicity rating): 14 days after application, rating scale 0-100
Procedure, shortened: as §1

[6] = tested on: green foxtail (Setaria viridis, SETVI); assay: as above; details: post-emerge; for Post-emerge Herbicidal Activity SETVI: phytotoxicity rating 0-100 at 14 days after application; for Post-emerge Herbicidal Activity SETVI (phytotoxicity rating): 14 days after application, rating scale 0-100
Procedure, shortened: as §1

[7] = tested on: barnyardgrass (Echinochloa crus-galli, ECHCG); assay: as above; details: post-emerge; for Post-emerge Herbicidal Activity ECHCG: phytotoxicity rating 0-100 at 14 days after application; for Post-emerge Herbicidal Activity ECHCG (phytotoxicity rating): 14 days after application, rating scale 0-100
Procedure, shortened: as §1

[8] = tested on: lambsquarters (Chenopodium album, CHEAL); assay: as above; details: post-emerge; for Post-emerge Herbicidal Activity CHEAL: phytotoxicity rating 0-100 at 14 days after application; for Post-emerge Herbicidal Activity CHEAL (phytotoxicity rating): 14 days after application, rating scale 0-100
Procedure, shortened: as §1

[9] = tested on: field corn (Zea mays L., var. Dekalb 535, CORN); assay: Pre-emerge test, crop safety; details: for Pre-emerge phytotoxicity rating, crop damage CORN: rating scale 0-100, 14 days after application; for phytotoxicity rating CORN: pre-emerge, 14 days after application, rating scale 0-100
Procedure, shortened: (§2)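 Fourteen days after spraying, crop and weed injury was graded visually from 0, no effect, to 100, every plant dead. Test substances were dissolved in acetone and applied at 15–1000 g ai/ha with a flat-fan nozzle. Application was either pre-emergence, one day after sowing, or post-emergence at the 2–3 leaf stage.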

[10] = tested on: upland rice (Oryza sp., var. Tebonnet, RICE); assay: Pre-emerge test, crop safety; details: for Pre-emerge phytotoxicity rating, crop damage RICE: rating scale 0-100, 14 days after application; for phytotoxicity rating RICE: pre-emerge, 14 days after application, rating scale 0-100
Procedure, shortened: as §2

[11] = tested on: redroot pigweed (Amaranthus retroflexus, AMARE); assay: Pre-emerge test, greenhouse herbicide activity screening; details: for Pre-emerge herbicidal activity, phytotoxicity rating AMARE: rating scale 0-100, 14 days after application; for phytotoxicity rating AMARE: pre-emerge, 14 days after application, rating scale 0-100
Procedure, shortened: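 Rating: 0–100 visual injury, 14 DAA. Application: acetone, 187 l/ha, 15–1000 g ai/ha, flat-fan track sprayer with nozzle 40–45 cm above soil or canopy. Post-emerge runs used 0.25% v/v surfactant on 2–3 leaf plants.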

[12] = tested on: sicklepod (Cassia obtusifolia, CASOB); assay: as above; details: for Pre-emerge herbicidal activity, phytotoxicity rating CASOB: rating scale 0-100, 14 days after application; for phytotoxicity rating CASOB: pre-emerge, 14 days after application, rating scale 0-100
Procedure, shortened: (§3)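 Compounds in acetone were track-sprayed at 15-1000 g ai/ha (187 l/ha) on sandy loam pots: pre-emerge one day after seeding, post-emerge at 2-3 leaf stage with 0.25% v/v non-ionic surfactant. Phytotoxicity was rated 14 days later on a 0 (no damage) to 100 (complete death) scale.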

[13] = tested on: ivyleaf morningglory (Ipomoea hederacea, IPOHE); assay: as above; details: for Pre-emerge herbicidal activity, phytotoxicity rating IPOHE: rating scale 0-100, 14 days after application; for phytotoxicity rating IPOHE: pre-emerge, 14 days after application, rating scale 0-100
Procedure, shortened: as §3

[14] = tested on: velvetleaf (Abutilon theophrasti, ABUTH); assay: as above; details: for Pre-emerge herbicidal activity, phytotoxicity rating ABUTH: rating scale 0-100, 14 days after application; for phytotoxicity rating ABUTH: pre-emerge, 14 days after application, rating scale 0-100
Procedure, shortened: as §3

[15] = tested on: large crabgrass (Digitaria sanguinalis, DIGSA); assay: as above; details: for Pre-emerge herbicidal activity, phytotoxicity rating DIGSA: rating scale 0-100, 14 days after application; for phytotoxicity rating DIGSA: pre-emerge, 14 days after application, rating scale 0-100
Procedure, shortened: as §3

[16] = tested on: green foxtail (Setaria viridis, SETVI); assay: as above; details: for Pre-emerge herbicidal activity, phytotoxicity rating SETVI: rating scale 0-100, 14 days after application; for phytotoxicity rating SETVI: pre-emerge, 14 days after application, rating scale 0-100
Procedure, shortened: as §3

[17] = tested on: barnyardgrass (Echinochloa crus-galli, ECHCG); assay: as above; details: for Pre-emerge herbicidal activity, phytotoxicity rating ECHCG: rating scale 0-100, 14 days after application; for phytotoxicity rating ECHCG: pre-emerge, 14 days after application, rating scale 0-100
Procedure, shortened: as §3

[18] = tested on: lambsquarters (Chenopodium album, CHEAL); assay: as above; details: for Pre-emerge herbicidal activity, phytotoxicity rating CHEAL: rating scale 0-100, 14 days after application; for phytotoxicity rating CHEAL: pre-emerge, 14 days after application, rating scale 0-100
Procedure, shortened: as §3

[19] = tested on: field corn (Zea mays L., var. Dekalb 535, CORN); assay: Post-emerge test, crop safety; details: post-emerge; for Post-emerge Herbicidal Activity CORN: crop damage rating 0-100 at 14 days after application; for Post-emerge Herbicidal Activity CORN (crop damage rating): 14 days after application, rating scale 0-100
Procedure, shortened: as §3

[20] = tested on: upland rice (Oryza sp., var. Tebonnet, RICE); assay: Post-emerge test, crop safety; details: post-emerge; for Post-emerge Herbicidal Activity RICE: crop damage rating 0-100 at 14 days after application; for Post-emerge Herbicidal Activity RICE (crop damage rating): 14 days after application, rating scale 0-100
Procedure, shortened: as §3

## COc1c(Cl)cc(F)c(N2C(=O)C3CCCCN3C2=S)c1NC(=O)c1ccc2ccccc2c1 (centres unmarked) [12-5]
[1]; 63 g ai/ha
  Post-emerge Herbicidal Activity AMARE: 70
[1]; 250 g ai/ha
  Post-emerge Herbicidal Activity AMARE: 85
[2]; 63 g ai/ha
  Post-emerge Herbicidal Activity CASOB: 40
[2]; 250 g ai/ha
  Post-emerge Herbicidal Activity CASOB: 60
[3]; 63 g ai/ha
  Post-emerge Herbicidal Activity IPOHE: 100
[3]; 250 g ai/ha
  Post-emerge Herbicidal Activity IPOHE: 99
[4]; 63 g ai/ha
  Post-emerge Herbicidal Activity ABUTH: 100
[4]; 250 g ai/ha
  Post-emerge Herbicidal Activity ABUTH: 100
[5]; 63 g ai/ha
  Post-emerge Herbicidal Activity DIGSA: 0
[5]; 250 g ai/ha
  Post-emerge Herbicidal Activity DIGSA: 10
[6]; 63 g ai/ha
  Post-emerge Herbicidal Activity SETVI: 20
[6]; 250 g ai/ha
  Post-emerge Herbicidal Activity SETVI: 10
[7]; 63 g ai/ha
  Post-emerge Herbicidal Activity ECHCG: 10
[7]; 250 g ai/ha
  Post-emerge Herbicidal Activity ECHCG: 10
[8]; 63 g ai/ha
  Post-emerge Herbicidal Activity CHEAL: 100
[8]; 250 g ai/ha
  Post-emerge Herbicidal Activity CHEAL: 99
[9]; 63 g ai/ha
  Pre-emerge phytotoxicity rating, crop damage CORN: 0
[9]; 250 g ai/ha
  Pre-emerge phytotoxicity rating, crop damage CORN: 0
[10]; 63 g ai/ha
  Pre-emerge phytotoxicity rating, crop damage RICE: 0
[10]; 250 g ai/ha
  Pre-emerge phytotoxicity rating, crop damage RICE: 10
[11]; 63 g ai/ha
  Pre-emerge herbicidal activity, phytotoxicity rating AMARE: 30
[11]; 250 g ai/ha
  Pre-emerge herbicidal activity, phytotoxicity rating AMARE: 100
[12]; 63 g ai/ha
  Pre-emerge herbicidal activity, phytotoxicity rating CASOB: 0
[12]; 250 g ai/ha
  Pre-emerge herbicidal activity, phytotoxicity rating CASOB: 80
[13]; 63 g ai/ha
  Pre-emerge herbicidal activity, phytotoxicity rating IPOHE: 0
[13]; 250 g ai/ha
  Pre-emerge herbicidal activity, phytotoxicity rating IPOHE: 20
[14]; 63 g ai/ha
  Pre-emerge herbicidal activity, phytotoxicity rating ABUTH: 70
[14]; 250 g ai/ha
  Pre-emerge herbicidal activity, phytotoxicity rating ABUTH: 90
[15]; 63 g ai/ha
  Pre-emerge herbicidal activity, phytotoxicity rating DIGSA: 0
[15]; 250 g ai/ha
  Pre-emerge herbicidal activity, phytotoxicity rating DIGSA: 10
[16]; 63 g ai/ha
  Pre-emerge herbicidal activity, phytotoxicity rating SETVI: 0
[16]; 250 g ai/ha
  Pre-emerge herbicidal activity, phytotoxicity rating SETVI: 0
[17]; 63 g ai/ha
  Pre-emerge herbicidal activity, phytotoxicity rating ECHCG: 0
[17]; 250 g ai/ha
  Pre-emerge herbicidal activity, phytotoxicity rating ECHCG: 40
[18]; 63 g ai/ha
  Pre-emerge herbicidal activity, phytotoxicity rating CHEAL: 90
[18]; 250 g ai/ha
  Pre-emerge herbicidal activity, phytotoxicity rating CHEAL: 100
[19]; 63 g ai/ha
  Post-emerge Herbicidal Activity CORN: 25
[19]; 250 g ai/ha
  Post-emerge Herbicidal Activity CORN: 20
[20]; 63 g ai/ha
  Post-emerge Herbicidal Activity RICE: 20
[20]; 250 g ai/ha
  Post-emerge Herbicidal Activity RICE: 15

## COc1c(Cl)cc(F)c(-n2c(=O)cc(C(F)(F)F)n(C)c2=O)c1NNC(=O)c1ccc(F)cc1F [15-4]
[1]; 63 g ai/ha, rating scale 0-100 (0 no damage, 100 complete death)
  Post-emerge Herbicidal Activity AMARE (phytotoxicity rating): 70
[1]; 250 g ai/ha, rating scale 0-100
  Post-emerge Herbicidal Activity AMARE (phytotoxicity rating): 100
[2]; 63 g ai/ha
  Post-emerge Herbicidal Activity CASOB (phytotoxicity rating): 50
[2]; 250 g ai/ha
  Post-emerge Herbicidal Activity CASOB (phytotoxicity rating): 80
[3]; 63 g ai/ha
  Post-emerge Herbicidal Activity IPOHE (phytotoxicity rating): 100
[3]; 250 g ai/ha
  Post-emerge Herbicidal Activity IPOHE (phytotoxicity rating): 100
[4]; 63 g ai/ha
  Post-emerge Herbicidal Activity ABUTH (phytotoxicity rating): 100
[4]; 250 g ai/ha
  Post-emerge Herbicidal Activity ABUTH (phytotoxicity rating): 100
[5]; 63 g ai/ha
  Post-emerge Herbicidal Activity DIGSA (phytotoxicity rating): 30
[5]; 250 g ai/ha
  Post-emerge Herbicidal Activity DIGSA (phytotoxicity rating): 70
[6]; 63 g ai/ha
  Post-emerge Herbicidal Activity SETVI (phytotoxicity rating): 50
[6]; 250 g ai/ha
  Post-emerge Herbicidal Activity SETVI (phytotoxicity rating): 80
[7]; 63 g ai/ha
  Post-emerge Herbicidal Activity ECHCG (phytotoxicity rating): 40
[7]; 250 g ai/ha
  Post-emerge Herbicidal Activity ECHCG (phytotoxicity rating): 90
[8]; 63 g ai/ha
  Post-emerge Herbicidal Activity CHEAL (phytotoxicity rating): 100
[8]; 250 g ai/ha
  Post-emerge Herbicidal Activity CHEAL (phytotoxicity rating): 100
[9]; 63 g ai/ha
  phytotoxicity rating CORN: 90
[9]; 250 g ai/ha
  phytotoxicity rating CORN: 100
[10]; 63 g ai/ha
  phytotoxicity rating RICE: 80
[10]; 250 g ai/ha
  phytotoxicity rating RICE: 100
[11]; 63 g ai/ha
  phytotoxicity rating AMARE: 100
[11]; 250 g ai/ha
  phytotoxicity rating AMARE: 100
[12]; 63 g ai/ha
  phytotoxicity rating CASOB: 100
[12]; 250 g ai/ha
  phytotoxicity rating CASOB: 100
[13]; 63 g ai/ha
  phytotoxicity rating IPOHE: 100
[13]; 250 g ai/ha
  phytotoxicity rating IPOHE: 100
[14]; 63 g ai/ha
  phytotoxicity rating ABUTH: 100
[14]; 250 g ai/ha
  phytotoxicity rating ABUTH: 100
[15]; 63 g ai/ha
  phytotoxicity rating DIGSA: 100
[15]; 250 g ai/ha
  phytotoxicity rating DIGSA: 100
[16]; 63 g ai/ha
  phytotoxicity rating SETVI: 100
[16]; 250 g ai/ha
  phytotoxicity rating SETVI: 100
[17]; 63 g ai/ha
  phytotoxicity rating ECHCG: 80
[17]; 250 g ai/ha
  phytotoxicity rating ECHCG: 100
[18]; 63 g ai/ha
  phytotoxicity rating CHEAL: 100
[18]; 250 g ai/ha
  phytotoxicity rating CHEAL: 100
[19]; 63 g ai/ha
  Post-emerge Herbicidal Activity CORN (crop damage rating): 50
[19]; 250 g ai/ha
  Post-emerge Herbicidal Activity CORN (crop damage rating): 90
[20]; 63 g ai/ha
  Post-emerge Herbicidal Activity RICE (crop damage rating): 70
[20]; 250 g ai/ha
  Post-emerge Herbicidal Activity RICE (crop damage rating): 95
